Data: the supplement of paper PMC10307832

Tests used:
Experiment in all cases: relative viability (nuclei count vs DMSO), 5 days (fraction); higher = more cells survive
[1] = compound: CCn1c(-c2nonc2N)nc2c(C#CC(C)(C)O)ncc(OC[C@H]3CCCNC3)c21 + O=C(c1cc(Cc2n[nH]c(=O)c3ccccc23)ccc1F)N1CCN(C(=O)C2CC2)CC1 [Olaparib] (partner 8 µM)
In short: (§1)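 Lung cancer cell lines in 1536-well plates got either a single drug or a fixed anchor-drug dose together with five library-drug doses (not always all listed) in √10 steps, by pin tool, on the day after seeding. Nuclei were counted after 5 days, and relative viability is the treated-to-vehicle ratio of nuclei counts. Values are medians of duplicate plates.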

BAM7 + Trametinib = compound: CCOC1=CC=CC=C1N=NC2=C(NN(C2=O)C3=NC(=CS3)C4=CC=CC=C4)C [BAM7] + CC(=O)Nc1cccc(-n2c(=O)n(C3CC3)c(=O)c3c(Nc4ccc(I)cc4F)n(C)c(=O)c(C)c32)c1 [Trametinib] (partner 0.02 µM)
In short: as §1

[2] = compound: CCn1c(-c2nonc2N)nc2c(C#CC(C)(C)O)ncc(OC[C@H]3CCCNC3)c21 + CS(=O)(=O)N1CCN(Cc2cc3nc(-c4cccc5[nH]ncc45)nc(N4CCOCC4)c3s2)CC1 [Pictilisib] (partner 1 µM)
In short: as §1

BAM7 + Luminespib = compound: CCOC1=CC=CC=C1N=NC2=C(NN(C2=O)C3=NC(=CS3)C4=CC=CC=C4)C [BAM7] + CCNC(=O)c1noc(-c2cc(C(C)C)c(O)cc2O)c1-c1ccc(CN2CCOCC2)cc1 [Luminespib] (partner 0.01 µM)
In short: as §1

Cell Line | relative viability ([1]; first compound 0.01 µM) | relative viability ([1]; first compound 0.03162 µM) | relative viability ([1]; first compound 0.1 µM) | relative viability ([1]; first compound 0.3162 µM) | relative viability ([1]; first compound 1 µM) | relative viability (BAM7 + Trametinib; first compound 0.5 µM) | relative viability (BAM7 + Trametinib; first compound 5 µM) | relative viability (BAM7 + Trametinib; first compound 15.81 µM) | relative viability (BAM7 + Trametinib; first compound 50 µM) | relative viability ([2]; first compound 0.01 µM) | relative viability ([2]; first compound 0.03162 µM) | relative viability ([2]; first compound 0.1 µM) | relative viability ([2]; first compound 0.3162 µM) | relative viability ([2]; first compound 1 µM) | relative viability (BAM7 + Luminespib; first compound 0.5 µM) | relative viability (BAM7 + Luminespib; first compound 5 µM) | relative viability (BAM7 + Luminespib; first compound 15.81 µM) | relative viability (BAM7 + Luminespib; first compound 50 µM)
HCC-366 | 0.421 | 0.366 | 0.359 | 0.321 | 0.354 | 0.328 | 0.373 | 0.294 | 0.356 | 0.235 | 0.214 | 0.12 | 0.131 | 0.218 |  |  |  | 
HCC-827 | 0.602 | 0.671 | 0.661 | 0.622 | 0.683 | 0.535 | 0.548 | 0.591 | 0.556 | 1.18 | 0.966 | 0.865 | 0.916 | 1.19 | 0.582 | 0.646 | 0.672 | 0.651
HOP-62 | 0.396 | 0.419 | 0.445 | 0.521 | 0.603 | 0.37 | 0.416 | 0.376 | 0.352 | 0.688 | 0.75 | 0.703 | 0.843 | 0.794 | 0.89 | 0.987 | 0.911 | 0.844
IA-LM | 0.942 | 0.791 | 0.937 | 1.3 | 0.786 |  |  |  |  | 0.355 | 0.316 | 0.276 | 0.26 | 0.168 |  |  |  | 
LC-2-ad | 0.739 | 0.719 | 0.716 | 0.657 | 0.698 | 0.884 | 0.91 | 0.87 | 0.847 | 0.303 | 0.507 | 0.505 | 0.385 | 0.397 | 1.06 | 1.26 | 0.951 | 1.03
LCLC-97TM1 | 0.413 | 0.509 | 0.347 | 0.391 | 0.321 | 0.202 | 0.199 |  | 0.224 |  | 0.208 | 0.231 | 0.21 | 0.158 | 0.848 | 0.803 | 0.825 | 1.01
LCLC-103H | 0.705 | 0.795 | 0.747 | 0.766 | 0.795 | 0.664 | 0.706 | 0.69 | 0.684 | 0.591 | 0.59 | 0.527 | 0.622 | 0.625 | 0.837 | 0.919 | 0.946 | 0.979
LK-2 | 0.641 | 0.566 | 0.645 | 0.865 | 0.72 | 0.737 | 0.945 | 0.811 | 0.841 | 0.509 | 0.577 | 0.503 | 0.589 | 0.729 | 0.221 | 0.172 | 0.228 | 0.191
LOU-NH91 | 0.936 | 0.914 | 0.936 | 0.797 | 0.856 | 0.794 | 0.788 | 0.804 | 0.805 | 0.547 | 0.501 | 0.483 | 0.504 | 0.526 | 0.38 | 0.336 | 0.332 | 0.347
LU99A | 0.282 | 0.312 | 0.251 | 0.258 | 0.288 | 0.54 | 0.548 | 0.552 | 0.575 | 0.33 | 0.353 | 0.294 | 0.293 | 0.324 | 0.251 | 0.316 | 0.207 | 0.247
LXF-289 | 1.06 | 1.1 | 1.03 | 0.973 | 1.05 | 0.739 | 0.762 | 0.734 | 0.641 | 0.765 | 0.798 | 0.715 | 0.723 | 0.793 | 0.756 | 0.686 | 0.628 | 0.665
NCI-H23 | 0.294 | 0.275 | 0.269 | 0.309 | 0.313 | 0.314 | 0.423 | 0.389 | 0.462 | 0.421 | 0.375 | 0.373 | 0.445 | 0.417 | 0.218 | 0.249 | 0.225 | 0.206
NCI-H322M | 0.779 | 0.71 | 0.693 | 0.749 | 0.831 | 0.525 | 0.577 | 0.496 | 0.571 | 0.448 | 0.483 | 0.341 | 0.476 | 0.413 | 0.876 | 0.966 | 0.903 | 0.93
NCI-H358 | 0.556 | 0.601 | 0.569 | 0.525 | 0.518 |  | 0.152 | 0.137 | 0.126 | 0.332 | 0.364 | 0.364 | 0.318 | 0.32 | 0.382 | 0.283 | 0.376 | 0.49
NCI-H522 | 0.622 | 0.779 | 0.724 | 0.628 | 0.581 | 0.72 | 0.741 | 0.665 | 0.718 |  |  |  |  |  | 1.2 | 1.2 | 1.11 | 0.993
NCI-H1299 | 0.954 | 0.965 | 0.936 | 0.995 | 0.984 |  |  |  |  | 0.817 | 0.954 | 0.773 | 0.76 | 0.753 |  |  |  | 
NCI-H1563 |  |  |  |  |  |  |  |  |  | 0.689 | 0.618 | 0.686 | 0.615 | 0.633 | 0.508 | 0.518 | 0.562 | 0.564
NCI-H1623 |  |  |  |  |  |  |  |  |  |  |  |  |  |  | 0.491 | 0.595 | 0.526 | 0.6
NCI-H1648 | 0.937 | 0.851 | 0.767 | 0.604 | 0.567 | 0.558 | 0.476 | 0.421 | 0.464 |  |  |  |  |  |  |  |  | 
NCI-H1703 | 0.406 | 0.506 | 0.468 | 0.587 | 0.31 |  |  |  |  | 0.228 | 0.254 | 0.226 | 0.208 | 0.224 |  |  |  | 
NCI-H2342 | 0.517 | 0.42 | 0.486 | 0.482 | 0.44 | 0.933 | 0.818 | 0.745 | 0.82 |  |  |  |  |  | 0.691 | 0.726 | 0.768 | 0.735
SW 900 | 0.871 | 0.853 | 0.742 | 0.88 | 0.864 |  | 0.72 |  | 0.888 |  |  |  |  |  | 0.19 | 0.208 | 0.158 | 0.185
